Test results reported in ChEMBL document CHEMBL4651402, “Screening of ~5500 FDA-approved drugs and clinical candidates for anti-SARS-CoV-2 activity” (2021).

Test system: SARS-CoV-2
Experiment: microbe, parasite or virus in culture
Details: Severe acute respiratory syndrome coronavirus 2, Vero C1008, 48 h

| Structure (SMILES) | IC50 [µM] | IC50 (read-out: pIC50 (converted)) [µM] |
| --- | --- | --- |
| CCN1CC2CN(C)CC(C1)C2OC(=O)c1ccc(Cl)cc1 (configuration not stated) | > 20 | > 20 |
| COc1ccc2[nH]c([S@@+]([O-])Cc3ncc(C)c(OC)c3C)nc2c1 [ESOMEPRAZOLE] | > 20 | > 20 |
| CCN(CC)C(=O)N[C@H]1C=C2c3cccc4[nH]c(Br)c(c34)C[C@H]2N(C)C1 [BROMERGURIDE] | > 20 | > 20 |
| CCCC1(CCC)CCC2(CCN(CCCN(CC)CC)C2)CC1 [ATIPRIMOD] | > 20 | > 20 |
| Cc1cc2c(F)c(Oc3ncnn4cc(OC[C@@H](C)OC(=O)[C@H](C)N)c(C)c34)ccc2[nH]1 [BRIVANIB ALANINATE] | > 20 | > 20 |
| O=C(OOC(=O)c1ccccc1)c1ccccc1 [BENZOYL PEROXIDE] | > 20 | > 20 |
| Cc1nc2ccccn2c(=O)c1CCN1CCC(Nc2nc3cccnc3n2Cc2ccco2)CC1 [BARMASTINE] | > 20 | > 20 |
| CN(C)CCOc1ccc(/C(=C(\CCCl)c2ccccc2)c2ccccc2)cc1 | > 20 | > 20 |
| CCn1cc(C(=O)O)c(=O)c2cnc(N3CCCC3)nc21 [PIROMIDIC ACID] | > 20 | > 20 |
| CON(C)C(=O)N1N=C(c2cc(F)ccc2F)S[C@@]1(CCCN)c1ccccc1 [FILANESIB] | > 20 | > 20 |
| OC1CCCc2nc3ccccc3c(NCc3ccccc3)c21 (configuration not stated) [SURONACRINE] | > 20 | > 20 |
| CN1C(=O)[C@@H](NC(=O)c2n[nH]c(Cc3ccccc3)n2)COc2ccccc21 [GSK2982772] | > 20 | > 20 |
| CCCCc1nc(Cl)c(CO)n1Cc1ccc(-c2ccccc2-c2nnn[nH]2)cc1 [LOSARTAN] | > 20 | > 20 |
| Cc1nc2ccccc2c(=O)n1-c1ccccc1Cl [MECLOQUALONE] | > 20 | > 20 |
| Cc1ncc(CO)c(CN)c1O [PYRIDOXAMINE] | > 20 | > 20 |
| COc1ccc(-c2ccc(N)[n+](CCCC(=O)O)n2)cc1 | > 20 | > 20 |
| CN(C(=O)C(c1ccccc1)c1ccccc1)[C@H](CN1CC[C@H](O)C1)c1ccccc1 [ASIMADOLINE] | > 20 | > 20 |
| CCC(=O)NS(=O)(=O)c1ccc(NC(=O)COc2ccc(Cl)cc2C(=O)c2cc(Cl)cc(C#N)c2)c(C)c1 [GW-695634] | > 20 | > 20 |
| COc1cc(-c2ccc(/N=N/c3ccc4c(S(=O)(=O)O)cc(S(=O)(=O)O)c(N)c4c3O)c(OC)c2)ccc1/N=N/c1ccc2c(S(=O)(=O)O)cc(S(=O)(=O)O)c(N)c2c1O [CHICAGO SKY BLUE] | > 20 | > 20 |
| Cn1c(N2CCCCS2(=O)=O)nc(C(=O)NCc2ccc(F)cc2)c(O)c1=O [BMS-707035] | > 20 | > 20 |
| CN[C@@H]1[C@H](O)[C@H](NC)[C@H]2O[C@@]3(O)C(=O)C[C@@H](C)O[C@H]3O[C@@H]2[C@H]1O [SPECTINOMYCIN] | > 20 | > 20 |
| N[C@@H](Cc1cc(I)c(Oc2cc(I)c(O)c(I)c2)c(I)c1)C(=O)O [LEVOTHYROXINE] | > 20 | > 20 |
| COP(=O)(OC)OC=C(Cl)Cl [DICHLORVOS] | > 20 | > 20 |
| Cc1ccc(/C=C/C(=O)NCCCCN2CCN(C(c3ccccc3)c3ccccc3)CC2)cn1 [TAGORIZINE] | > 20 | > 20 |
| CN(C)CC/C=C1/c2ccccc2COc2ccc(CC(=O)O)cc21 [OLOPATADINE] | > 20 | > 20 |
| CC[C@H]1OC(=O)[C@H](C)[C@@H](O[C@H]2C[C@@](C)(OC)[C@@H](O)[C@H](C)O2)[C@H](C)[C@@H](O[C@@H]2O[C@H](C)C[C@H](N(C)C)[C@H]2O)[C@](C)(O)C[C@@H](C)[C@@H]2N[C@@H](COCCOC)O[C@H]([C@H]2C)[C@]1(C)O [DIRITHROMYCIN] | > 20 | > 20 |
